The text below walks through data of publication doi:10.1101/2023.11.24.568596v1 (biorxiv, 2023).

Targets include CaMK1g (Homo sapiens, UniProt Q96NX5); GSK3B (Homo sapiens, UniProt P49841); AKT3 (Homo sapiens, UniProt Q9Y243); MSSK1 (Homo sapiens, UniProt Q9UPE1); CK2a1 (Homo sapiens, UniProt P68400).
Holding throughout (conditions): binder
The target in a further test is T1, CASK (Homo sapiens, UniProt O14936).
T1 sequence (O14936 1-926): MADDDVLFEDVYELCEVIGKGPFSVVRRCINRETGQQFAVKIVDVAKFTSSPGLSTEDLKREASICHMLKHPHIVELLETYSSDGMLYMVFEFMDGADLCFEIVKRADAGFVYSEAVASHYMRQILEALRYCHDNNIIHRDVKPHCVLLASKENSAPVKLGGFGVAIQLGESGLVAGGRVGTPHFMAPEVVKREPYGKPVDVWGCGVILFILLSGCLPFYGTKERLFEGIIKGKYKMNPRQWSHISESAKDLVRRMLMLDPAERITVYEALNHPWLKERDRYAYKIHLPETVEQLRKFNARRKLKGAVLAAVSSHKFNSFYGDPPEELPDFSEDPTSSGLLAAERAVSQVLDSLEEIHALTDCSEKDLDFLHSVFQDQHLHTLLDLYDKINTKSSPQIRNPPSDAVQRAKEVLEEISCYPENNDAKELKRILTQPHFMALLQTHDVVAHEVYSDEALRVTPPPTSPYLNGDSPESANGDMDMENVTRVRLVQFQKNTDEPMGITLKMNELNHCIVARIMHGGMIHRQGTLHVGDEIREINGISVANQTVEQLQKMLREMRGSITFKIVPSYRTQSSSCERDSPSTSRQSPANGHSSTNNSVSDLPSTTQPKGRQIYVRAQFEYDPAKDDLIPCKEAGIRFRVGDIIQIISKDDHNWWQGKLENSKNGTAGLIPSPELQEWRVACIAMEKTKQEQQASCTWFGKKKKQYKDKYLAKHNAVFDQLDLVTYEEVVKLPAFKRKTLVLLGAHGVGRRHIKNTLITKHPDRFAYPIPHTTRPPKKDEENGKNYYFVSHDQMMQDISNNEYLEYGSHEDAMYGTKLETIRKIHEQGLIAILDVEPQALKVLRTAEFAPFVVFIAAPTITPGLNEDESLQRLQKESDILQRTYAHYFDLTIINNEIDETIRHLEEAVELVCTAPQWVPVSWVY

A further test has as its target T2, AurA (Homo sapiens, UniProt O14965).
T2 sequence (O14965 1-403): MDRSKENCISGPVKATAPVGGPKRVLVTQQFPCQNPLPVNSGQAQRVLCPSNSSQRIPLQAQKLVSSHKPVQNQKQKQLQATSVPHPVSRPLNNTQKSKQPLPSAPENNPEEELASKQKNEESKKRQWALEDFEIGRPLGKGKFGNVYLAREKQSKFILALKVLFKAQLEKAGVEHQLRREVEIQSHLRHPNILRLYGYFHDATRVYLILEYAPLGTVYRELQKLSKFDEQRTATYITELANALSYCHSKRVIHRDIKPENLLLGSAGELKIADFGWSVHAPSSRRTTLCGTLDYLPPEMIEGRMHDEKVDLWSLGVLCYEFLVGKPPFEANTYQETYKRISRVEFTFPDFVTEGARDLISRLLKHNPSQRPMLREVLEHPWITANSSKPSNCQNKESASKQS

The next test deals with T3, DRAK1 (Homo sapiens, UniProt Q9UEE5).
T3 sequence (Q9UEE5 1-414): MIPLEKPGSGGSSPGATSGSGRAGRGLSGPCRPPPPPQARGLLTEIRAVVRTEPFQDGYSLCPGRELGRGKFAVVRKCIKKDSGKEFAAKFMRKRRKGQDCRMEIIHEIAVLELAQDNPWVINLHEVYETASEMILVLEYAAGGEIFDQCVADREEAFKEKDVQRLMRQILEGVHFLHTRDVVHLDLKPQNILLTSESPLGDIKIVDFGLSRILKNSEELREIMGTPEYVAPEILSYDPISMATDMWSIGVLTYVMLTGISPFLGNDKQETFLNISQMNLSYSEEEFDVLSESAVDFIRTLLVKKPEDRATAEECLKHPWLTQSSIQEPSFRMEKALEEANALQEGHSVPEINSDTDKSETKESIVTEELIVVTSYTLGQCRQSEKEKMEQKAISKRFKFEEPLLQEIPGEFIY

Chain of MSSK1 (Q9UPE1 whole entry): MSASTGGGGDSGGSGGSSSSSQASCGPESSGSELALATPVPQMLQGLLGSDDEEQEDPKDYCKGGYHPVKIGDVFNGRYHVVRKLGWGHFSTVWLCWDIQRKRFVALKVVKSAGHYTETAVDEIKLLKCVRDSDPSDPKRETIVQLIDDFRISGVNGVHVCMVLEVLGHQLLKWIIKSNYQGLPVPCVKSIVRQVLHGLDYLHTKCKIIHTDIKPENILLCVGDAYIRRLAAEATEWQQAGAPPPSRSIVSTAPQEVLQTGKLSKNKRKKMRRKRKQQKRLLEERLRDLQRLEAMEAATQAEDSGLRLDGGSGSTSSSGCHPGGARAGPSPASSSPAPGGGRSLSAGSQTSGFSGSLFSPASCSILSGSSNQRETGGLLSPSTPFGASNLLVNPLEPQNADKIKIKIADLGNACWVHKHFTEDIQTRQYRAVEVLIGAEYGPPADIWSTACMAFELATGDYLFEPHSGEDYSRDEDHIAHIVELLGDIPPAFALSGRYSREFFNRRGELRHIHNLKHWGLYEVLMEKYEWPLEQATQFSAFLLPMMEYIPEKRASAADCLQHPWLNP
Chain of CaMK1g (Q96NX5 whole entry): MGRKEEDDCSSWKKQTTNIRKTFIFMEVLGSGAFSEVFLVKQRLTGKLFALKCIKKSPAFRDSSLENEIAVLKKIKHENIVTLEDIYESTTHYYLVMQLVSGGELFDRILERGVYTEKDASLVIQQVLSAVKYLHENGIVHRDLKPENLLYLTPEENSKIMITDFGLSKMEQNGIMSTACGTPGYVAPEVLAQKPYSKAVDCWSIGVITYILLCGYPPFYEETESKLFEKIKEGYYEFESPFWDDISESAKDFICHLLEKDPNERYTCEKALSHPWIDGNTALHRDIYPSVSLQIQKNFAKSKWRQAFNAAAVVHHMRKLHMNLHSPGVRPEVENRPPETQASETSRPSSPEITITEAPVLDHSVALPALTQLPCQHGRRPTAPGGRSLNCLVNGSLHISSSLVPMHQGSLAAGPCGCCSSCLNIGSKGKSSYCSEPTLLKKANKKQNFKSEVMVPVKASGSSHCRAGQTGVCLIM
Chain of AKT3 (Q9Y243 whole entry): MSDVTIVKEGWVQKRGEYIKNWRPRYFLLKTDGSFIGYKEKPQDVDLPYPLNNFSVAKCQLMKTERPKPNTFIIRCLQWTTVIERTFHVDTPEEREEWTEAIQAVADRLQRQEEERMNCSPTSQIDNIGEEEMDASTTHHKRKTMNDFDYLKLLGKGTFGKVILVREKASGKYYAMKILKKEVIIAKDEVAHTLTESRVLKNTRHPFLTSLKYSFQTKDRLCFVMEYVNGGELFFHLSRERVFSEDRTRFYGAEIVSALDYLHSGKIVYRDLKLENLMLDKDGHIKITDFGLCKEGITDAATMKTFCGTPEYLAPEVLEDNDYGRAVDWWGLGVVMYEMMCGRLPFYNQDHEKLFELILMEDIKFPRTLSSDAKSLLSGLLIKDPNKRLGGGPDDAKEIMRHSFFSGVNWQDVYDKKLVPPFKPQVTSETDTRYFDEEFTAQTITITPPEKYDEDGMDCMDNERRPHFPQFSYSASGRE
Chain of GSK3B (P49841 whole entry): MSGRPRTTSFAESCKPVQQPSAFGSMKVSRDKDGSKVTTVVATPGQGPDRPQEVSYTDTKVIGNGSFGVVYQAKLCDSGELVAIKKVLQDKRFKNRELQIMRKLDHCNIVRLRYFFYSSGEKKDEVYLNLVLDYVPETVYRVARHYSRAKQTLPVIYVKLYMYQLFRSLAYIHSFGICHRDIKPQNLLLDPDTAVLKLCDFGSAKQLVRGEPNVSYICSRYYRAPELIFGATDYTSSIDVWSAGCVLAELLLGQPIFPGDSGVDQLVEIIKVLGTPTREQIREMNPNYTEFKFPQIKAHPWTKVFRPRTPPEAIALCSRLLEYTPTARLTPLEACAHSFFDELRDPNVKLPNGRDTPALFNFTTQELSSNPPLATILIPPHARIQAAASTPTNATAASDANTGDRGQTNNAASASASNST
Chain of CK2a1 (P68400 whole entry): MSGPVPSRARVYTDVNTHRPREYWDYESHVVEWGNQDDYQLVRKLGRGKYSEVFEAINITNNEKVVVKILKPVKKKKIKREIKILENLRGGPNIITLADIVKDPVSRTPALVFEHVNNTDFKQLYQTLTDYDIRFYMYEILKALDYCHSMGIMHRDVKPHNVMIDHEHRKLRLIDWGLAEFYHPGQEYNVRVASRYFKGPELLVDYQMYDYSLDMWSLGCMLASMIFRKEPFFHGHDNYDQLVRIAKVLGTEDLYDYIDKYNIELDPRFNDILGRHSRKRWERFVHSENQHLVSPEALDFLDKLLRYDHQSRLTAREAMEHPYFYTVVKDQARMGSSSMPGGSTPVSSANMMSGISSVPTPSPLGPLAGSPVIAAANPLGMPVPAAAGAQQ

As to `Cc1cccc(-c2ccc(-c3cc4cnc(Nc5ccc(C)c(O)c5)nc4n(CCCCN)c3=O)c(Cl)c2)n1` [compound 32, 8-(4-Aminobutyl)-6-(2-chloro-4-(6-methylpyridin-2-yl)phenyl)-2-((3-hydroxy-4-methylphenyl)amino)pyrido[2,3-d]pyrimidin-7(8H)-one], the “ΔTm 32” value at CASK stood at 0.0 °C; on AurA it was 5.9 °C; on DRAK1 it was 5.1 °C; on CaMK1g, 6.4 °C; at GSK3B, 2.2 °C; on AKT3 it was 3.6 °C. For the same compound, the “ΔTm 32” value at MSSK1 is -0.2 °C; on CK2a1, -0.3 °C.
Turning to `Cc1cccc(-c2ccc(-c3cc4cnc(Nc5ccc(O)cc5)nc4n(CCCCN)c3=O)c(Cl)c2)n1` [compound 31, 8-(4-Aminobutyl)-6-(2-chloro-4-(6-methylpyridin-2-yl)phenyl)-2-((4-hydroxyphenyl)amino) pyrido[2,3-d]pyrimidin-7(8H)-one], the “ΔTm 31” value on CASK is -0.2 °C; on AurA it was 4.4 °C; at DRAK1 it was 4.5 °C; at CaMK1g, 5.5 °C; on GSK3B, 3.2 °C; at AKT3 it was 4.2 °C. In addition, the “ΔTm 31” value on MSSK1 and on CK2a1 was 0.0 °C throughout.
With `Cc1cccc(-c2ccc(-c3cc4cnc(Nc5cc(C(F)(F)F)ccc5C)nc4n(CCCCN)c3=O)c(Cl)c2)n1` [compound 28, 8-(4-Aminobutyl)-6-(2-chloro-4-(6-methylpyridin-2-yl)phenyl)-2-((2-methyl-5-(trifluoromethyl)phenyl)amino)pyrido[2,3-d]pyrimidin-7(8H)-one], the “ΔTm 28” value at CASK is 0.0 °C; at AurA, 6.5 °C; at DRAK1, 0.3 °C; on CaMK1g, 5.7 °C; on GSK3B, 0.3 °C; at AKT3, 0.3 °C. For the same compound, the entries for the “ΔTm 28” value at MSSK1 and at CK2a1 were -0.9 °C and -0.6 °C, respectively.
As to `Cc1cccc(-c2ccc(-c3cc4cnc(NCCCN5CCNCC5)nc4n(CCCCN)c3=O)c(Cl)c2)n1` [compound 29, 8-(4-Aminobutyl)-6-(2-chloro-4-(6-methylpyridin-2-yl)phenyl)-2-((3-(piperazin-1-yl)propyl)amino)pyrido[2,3-d]pyrimidin-7(8H)-one], the “ΔTm 29” value at CASK is -0.5 °C; at AurA, -2.1 °C; at DRAK1, 1.3 °C; at CaMK1g, 5.0 °C; at GSK3B it was 0.3 °C; at AKT3 it was 0.8 °C. Also, the “ΔTm 29” value at MSSK1 was -0.3 °C; on CK2a1, -0.2 °C.
In the case of `Cc1cccc(-c2ccc(-c3cc4cnc(Nc5ccc(CCCO)cc5)nc4n(CCCCN)c3=O)c(Cl)c2)n1` [compound 30, 8-(4-Aminobutyl)-6-(2-chloro-4-(6-methylpyridin-2-yl)phenyl)-2-((4-(3-hydroxypropyl)phenyl)amino)pyrido[2,3-d]pyrimidin-7(8H)-one], the “ΔTm 30” value at CASK was -0.5 °C; at AurA, 8.6 °C; at DRAK1, 4.0 °C; on CaMK1g it was 7.5 °C; on GSK3B, 1.9 °C; at AKT3 it was 4.3 °C. The “ΔTm 30” value at MSSK1 is -0.2 °C; at CK2a1, -1.1 °C.
On to `Cc1cccc(-c2ccc(-c3cc4cnc(NCCCN5CCCC5=O)nc4n(CCCCN)c3=O)c(Cl)c2)n1` [compound 27, MR30], for which the “ΔTm MR30 (27)” value at CASK was -0.3 °C; at AurA, -0.3 °C; on DRAK1, -0.4 °C; at CaMK1g, 3.6 °C; on GSK3B, 1.9 °C; at AKT3, 0.9 °C. In addition, the “ΔTm MR30 (27)” value on MSSK1 and on CK2a1 was -0.4 °C in each case.
